Laboratory results reported in US20260217701A1, “SELECTIVE BET INHIBITORS AND USES THEREOF” (Tay Therapeutics Limited, priority 2022, published 2026).
Marks after values point to notes of the source that are not given here.

Assays:
BRD4 BD1 = biological target: T1, BRD4 BD1 (Homo sapiens, UniProt O60885); assay: NanoBRET bromodomain assay, NanoLuc-BRD4-BD1 in HEK293 cells; format: binding
T1 construct: HEK293 cells were transfected using NanoLuc-BRD4-BD1 or NanoLuc-BRD4-BD2 fusion vectors
Procedure: Exemplary compounds of the disclosure are active against BRD4 BD2 and selective over BRD4 BD1. BRD4 is a representative example of the BET family, as the binding sites of all BET family members are structurally similar. […] IC50s and fold selectivity's are determined as described below and are represented in Table 1.
(§1) Plates were then incubated at 37° C.+5% CO2 incubator for 2 hours.
(§2) Fold Selectivity Calculated (IC50 BD1/IC50 BD2).

BRD4 BD2 = biological target: T2, BRD4 BD2 (Homo sapiens, UniProt O60885); assay: NanoBRET bromodomain assay, NanoLuc-BRD4-BD2 in HEK293 cells; format: binding; details: for Fold Selectivity BRD4 BD1/BD2: IC50 BD1/IC50 BD2, qualitative if an IC50 is at the upper limit
T2 construct: HEK293 cells were transfected using NanoLuc-BRD4-BD1 or NanoLuc-BRD4-BD2 fusion vectors
Procedure: as §1, §2

[1] = system: experimental autoimmune encephalomyelitis; assay: Experimental autoimmune encephalomyelitis (EAE) model: EAE scores, onset, incidence; format: in vivo, C57BI/6 mice; details: FTY720 (Group 5)
Procedure: (§3) Experimental Method H: EAE in animals treated with a BET inhibitor and vehicle. Animals were assigned to the groups outlined in Table 38.
(§4) Compound A may be formulated as illustrated in Experimental Method A (see Table 2E.). A 40 mg/mL stock solution of Compound A in DMSO was prepared and aliquots stored at −20° C. On each day of preparation an e.g., 0.75 mL aliquot of thawed stock was diluted with an equal volume of DMSO. The remaining vehicle components were added to provide the highest dose and then diluted with vehicle to provide lower doses. A 30 mg/mL stock solution of FTY720 in ethanol was prepared and stored at −20° C. Daily, the stock solution was diluted with room temperature water to a final dosing concentration of 0.6 mg/mL. Formulated Compound A, FTY720 and vehicle were each at room temperature for dosing.
(§5) Female C57BI/6 mice (9 weeks old) were acclimated for seven days prior to study initiation. On Day-1, animals were assigned to groups in a balanced manner to achieve similar average weights across the different groups. Chronic EAE was induced in female C57BI/6 mice following immunization with an emulsion of MOG35-55/CFA on Day 0, followed by an injection of pertussis toxin two hours after the initial immunization. On Day 1, a second injection of pertussis toxin was administered 24 hours after the initial immunization. Mice were injected subcutaneously at two sites on the back with the MOG35-55/CFA emulsion (Hooke Kit™ MOG35-55/CFA Emulsion PTX). The first injection site was located approximately 1 cm caudal of the neckline (upper back), and the second injection site was approximately 2 cm cranial of the base of the tail (lower back). The injection volume was 0.1 mL for each injection. The pertussis toxin was administered at the described times through intraperitoneal injection at a concentration of 85 ng/dose for both injections.
(§6) Body weight was measured three times a week (Monday, Wednesday, and Friday) starting on Day-1. Animals were scored daily for EAE starting on Day 7. In-between scores were assigned when the clinical signs fell between two below defined scores.

EAE study: body weight = format: in vivo, C57BI/6 mice; details: for Mean Body Weight / Mean Body Weight (% of Day −1): FTY720 (Group 5)
Procedure: as §3, §4, §5, §6

SMILES: COCc1cccc(-c2cn(C)c(=O)cc2-c2cn(C)c(=O)c3[nH]c(-c4cnn(C(F)(F)F)c4)cc23)c1 [Example 7, 4-(5-(3-(methoxymethyl)phenyl)-1-methyl-2-oxo-1,2-dihydropyridin-4-yl)-6-methyl-2-(1-(trifluoromethyl)-1H-pyrazol-4-yl)-1,6-dihydro-7H-pyrrolo[2,3-c]pyridin-7-one]
- IC50 (BRD4 BD1): > 1000 nM
- IC50 (BRD4 BD2): < 10 nM
- Fold Selectivity BRD4 BD1/BD2 (BRD4 BD2): xxxx (Fold >1000)

SMILES: COCc1ccc(-c2cn(C)c(=O)cc2-c2cn(C)c(=O)c3[nH]c(-c4cnn(C(F)(F)F)c4)cc23)cc1 [Example 8, 4-(5-(4-(methoxymethyl)phenyl)-1-methyl-2-oxo-1,2-dihydropyridin-4-yl)-6-methyl-2-(1-(trifluoromethyl)-1H-pyrazol-4-yl)-1,6-dihydro-7H-pyrrolo[2,3-c]pyridin-7-one]
- IC50 (BRD4 BD1): > 1000 nM
- IC50 (BRD4 BD2): < 10 nM
- Fold Selectivity BRD4 BD1/BD2 (BRD4 BD2): xxxx (Fold >1000)

SMILES: COCCOc1ccc(-c2cn(C)c(=O)cc2-c2cn(C)c(=O)c3[nH]c(-c4cnn(C(F)(F)F)c4)cc23)cc1 [Example 9, 4-(5-(4-(2-methoxyethoxy)phenyl)-1-methyl-2-oxo-1,2-dihydropyridin-4-yl)-6-methyl-2-(1-(trifluoromethyl)-1H-pyrazol-4-yl)-1,6-dihydro-7H-pyrrolo[2,3-c]pyridin-7-one]
- IC50 (BRD4 BD1): > 1000 nM
- IC50 (BRD4 BD2): < 10 nM
- Fold Selectivity BRD4 BD1/BD2 (BRD4 BD2): xxxx (Fold >1000)

SMILES: Cn1cc(-c2ccccc2)c(-c2cn(C)c(=O)c3[nH]c(-c4cnn(C(F)(F)F)c4)c(Cl)c23)cc1=O [Example 10, 3-chloro-6-methyl-4-(1-methyl-2-oxo-5-phenyl-1,2-dihydropyridin-4-yl)-2-(1-(trifluoromethyl)-1H-pyrazol-4-yl)-1,6-dihydro-7H-pyrrolo[2,3-c]pyridin-7-one]
- IC50 (BRD4 BD1): > 1000 nM
- IC50 (BRD4 BD2): 10 to 50 nM
- Fold Selectivity BRD4 BD1/BD2 (BRD4 BD2): xxx (Fold >200 and ≤1000)

SMILES: Cc1cccc(C)c1Oc1cn(C)c(=O)cc1-c1cn(C)c(=O)c2[nH]c(-c3cnn(C(F)(F)F)c3)cc12 [Example 11, 4-(5-(2,6-dimethylphenoxy)-1-methyl-2-oxo-1,2-dihydropyridin-4-yl)-6-methyl-2-(1-(trifluoromethyl)-1H-pyrazol-4-yl)-1,6-dihydro-7H-pyrrolo[2,3-c]pyridin-7-one]
- IC50 (BRD4 BD1): > 1000 nM
- IC50 (BRD4 BD2): < 10 nM
- Fold Selectivity BRD4 BD1/BD2 (BRD4 BD2): xxxx (Fold >1000)

SMILES: CCCCCCCCc1ccc(CCC(N)(CO)CO)cc1 [FTY720, reference compound]
- Incidence of EAE (%) [1]: 16.7*** %
- Mean Day of Onset (SEM) [1]: 18.5 (0.5) Day
- Mean End Score (SEM) [1]: 0.21 (0.14)***
- Mean Maximum Score (SEM) [1]: 0.33 (0.23)***
- Median Day of Onset [1]: >28.0 days
- Mean EAE score ([1]; Day 7): 0.00
- Mean EAE score ([1]; Day 8): 0.00
- Mean EAE score ([1]; Day 9): 0.00
- Mean EAE score ([1]; Day 10): 0.00
- Mean EAE score ([1]; Day 11): 0.00
- Mean EAE score ([1]; Day 12): 0.00
- Mean EAE score ([1]; Day 13): 0.00
- Mean EAE score ([1]; Day 14): 0.00
- Mean EAE score ([1]; Day 15): 0.00
- Mean EAE score ([1]; Day 16): 0.00
- Mean EAE score ([1]; Day 17): 0.00
- Mean EAE score ([1]; Day 18): 0.13
- Mean EAE score ([1]; Day 19): 0.25
- Mean EAE score ([1]; Day 20): 0.25
- Mean EAE score ([1]; Day 21): 0.29
- Mean EAE score ([1]; Day 22): 0.33
- Mean EAE score ([1]; Day 23): 0.29
- Mean EAE score ([1]; Day 24): 0.29
- Mean EAE score ([1]; Day 25): 0.21
- Mean EAE score ([1]; Day 26): 0.21
- Mean EAE score ([1]; Day 27): 0.21
- Mean EAE score ([1]; Day 28): 0.21
- Mean Body Weight (EAE study: body weight; Day 0): 20.3 g
- Mean Body Weight (% of Day −1) (EAE study: body weight; Day 0): 100.7 % of Day −1
- Mean Body Weight (EAE study: body weight; Day 2): 19.9 g
- Mean Body Weight (% of Day −1) (EAE study: body weight; Day 2): 98.4 % of Day −1
- Mean Body Weight (EAE study: body weight; Day 5): 21.2 g
- Mean Body Weight (% of Day −1) (EAE study: body weight; Day 5): 105.1 % of Day −1
- Mean Body Weight (EAE study: body weight; Day 7): 21.3 g
- Mean Body Weight (% of Day −1) (EAE study: body weight; Day 7): 105.4 % of Day −1
- Mean Body Weight (EAE study: body weight; Day 9): 21.8 g
- Mean Body Weight (% of Day −1) (EAE study: body weight; Day 9): 108.2 % of Day −1
- Mean Body Weight (EAE study: body weight; Day 12): 21.5 g
- Mean Body Weight (% of Day −1) (EAE study: body weight; Day 12): 106.5 % of Day −1
- Mean Body Weight (EAE study: body weight; Day 14): 21.6 g
- Mean Body Weight (% of Day −1) (EAE study: body weight; Day 14): 107.2 % of Day −1
- Mean Body Weight (EAE study: body weight; Day 16): 21.6 g
- Mean Body Weight (% of Day −1) (EAE study: body weight; Day 16): 107.0 % of Day −1
- Mean Body Weight (EAE study: body weight; Day 19): 21.6 g
- Mean Body Weight (% of Day −1) (EAE study: body weight; Day 19): 106.9 % of Day −1
- Mean Body Weight (EAE study: body weight; Day 21): 21.7 g
- Mean Body Weight (% of Day −1) (EAE study: body weight; Day 21): 107.5 % of Day −1
- Mean Body Weight (EAE study: body weight; Day 23): 22.0 g
- Mean Body Weight (% of Day −1) (EAE study: body weight; Day 23): 109.3 % of Day −1
- Mean Body Weight (EAE study: body weight; Day 27): 21.9 g
- Mean Body Weight (% of Day −1) (EAE study: body weight; Day 27): 108.3 % of Day −1
- Mean Body Weight (EAE study: body weight; Day 28): 22.0 g
- Mean Body Weight (% of Day −1) (EAE study: body weight; Day 28): 108.9 % of Day −1
- Mean Body Weight (EAE study: body weight; Day −1): 20.2 g
- Mean Body Weight (% of Day −1) (EAE study: body weight; Day −1): 100.0 % of Day −1
- Mean Body Weight Change (% of Day −1) (EAE study: body weight; FTY720, mean end body weight): 108.9*** % of Day −1
